Reference: the supplement of paper PMC4932681

How the values were obtained:
T-47D [1] = assay: drug sensitivity score (DSS) (DSS (dimensionless)); higher = more sensitive; extreme values may be limits of the assay; settings: 72 h
Outline: (§1)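 Breast cancer cell lines and their resistant derivatives were seeded into 384-well plates containing library drugs at five concentrations across a 10 000-fold range, with resistant lines kept in medium with 1 μM of the selecting drug. After 72 h at 37 °C, CellTiter-Glo viability was read on a PHERAstar and normalised to vehicle-only and positive controls. Logistic dose–response fits in the Breeze pipeline gave drug sensitivity score, relative IC50 (curve midpoint) and top-dose inhibition.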

MCF-7 [2] = assay: as above; settings: 72 h
Outline: as §1

BT-474 Tam2 [3] = assay: as above; settings: 4-OH-tamoxifen in medium 1 µM; 72 h
Outline: as §1

ZR-75-1 Tam1 [4] = assay: as above; settings: 4-OH-tamoxifen in medium 1 µM; 72 h
Outline: as §1

ZR-75-1 Tam2 [5] = assay: as above; settings: 4-OH-tamoxifen in medium 1 µM; 72 h
Outline: as §1

MCF-7 Tam1 = assay: as above; settings: 4-OH-tamoxifen in medium 1 µM; 72 h
Outline: as §1

T-47D Tam2 [6] = assay: as above; settings: 4-OH-tamoxifen in medium 1 µM; 72 h
Outline: as §1

T-47D Tam1 [7] = assay: as above; settings: 4-OH-tamoxifen in medium 1 µM; 72 h
Outline: as §1

BT-474 [8] = assay: as above; settings: 72 h
Outline: as §1

ZR-75-1 [9] = assay: as above; settings: 72 h
Outline: as §1

BT-474 Tam1 [10] = assay: as above; settings: 4-OH-tamoxifen in medium 1 µM; 72 h
Outline: as §1

T-47D [11] = assay: relative IC50 (midpoint of fitted logistic curve, plateau may be below 50% inhibition; CellTiter-Glo viability); higher = less potent; settings: 72 h
Outline: as §1

MCF-7 [12] = assay: as above; settings: 72 h
Outline: as §1

BT-474 Tam2 [13] = assay: as above; settings: 4-OH-tamoxifen in medium 1 µM; 72 h
Outline: as §1

ZR-75-1 Tam1 [14] = assay: as above; settings: 4-OH-tamoxifen in medium 1 µM; 72 h
Outline: as §1

ZR-75-1 Tam2 [15] = assay: as above; settings: 4-OH-tamoxifen in medium 1 µM; 72 h
Outline: as §1

T-47D Tam2 [16] = assay: as above; settings: 4-OH-tamoxifen in medium 1 µM; 72 h
Outline: as §1

T-47D Tam1 [17] = assay: as above; settings: 4-OH-tamoxifen in medium 1 µM; 72 h
Outline: as §1

BT-474 [18] = assay: as above; settings: 72 h
Outline: as §1

ZR-75-1 [19] = assay: as above; settings: 72 h
Outline: as §1

BT-474 Tam1 [20] = assay: as above; settings: 4-OH-tamoxifen in medium 1 µM; 72 h
Outline: as §1

Structure (SMILES) | drug sensitivity score (T-47D [1]; 4-OH-tamoxifen in medium 0 µM) | drug sensitivity score (T-47D [1]; 4-OH-tamoxifen in medium 1 µM) | drug sensitivity score (MCF-7 [2]; 4-OH-tamoxifen in medium 0 µM) | drug sensitivity score (MCF-7 [2]; 4-OH-tamoxifen in medium 1 µM) | drug sensitivity score (BT-474 Tam2 [3]) | drug sensitivity score (ZR-75-1 Tam1 [4]) | drug sensitivity score (ZR-75-1 Tam2 [5]) | drug sensitivity score (MCF-7 Tam1) | drug sensitivity score (T-47D Tam2 [6]) | drug sensitivity score (T-47D Tam1 [7]) | drug sensitivity score (BT-474 [8]; 4-OH-tamoxifen in medium 0 µM) | drug sensitivity score (BT-474 [8]; 4-OH-tamoxifen in medium 1 µM) | drug sensitivity score (ZR-75-1 [9]; 4-OH-tamoxifen in medium 0 µM) | drug sensitivity score (ZR-75-1 [9]; 4-OH-tamoxifen in medium 1 µM) | drug sensitivity score (BT-474 Tam1 [10]) | relative IC50 (T-47D [11]; 4-OH-tamoxifen in medium 0 µM) [nM] | relative IC50 (T-47D [11]; 4-OH-tamoxifen in medium 1 µM) [nM] | relative IC50 (MCF-7 [12]; 4-OH-tamoxifen in medium 0 µM) [nM] | relative IC50 (MCF-7 [12]; 4-OH-tamoxifen in medium 1 µM) [nM] | relative IC50 (BT-474 Tam2 [13]) [nM] | relative IC50 (ZR-75-1 Tam1 [14]) [nM] | relative IC50 (ZR-75-1 Tam2 [15]) [nM] | relative IC50 (T-47D Tam2 [16]) [nM] | relative IC50 (T-47D Tam1 [17]) [nM] | relative IC50 (BT-474 [18]; 4-OH-tamoxifen in medium 0 µM) [nM] | relative IC50 (BT-474 [18]; 4-OH-tamoxifen in medium 1 µM) [nM] | relative IC50 (ZR-75-1 [19]; 4-OH-tamoxifen in medium 0 µM) [nM] | relative IC50 (ZR-75-1 [19]; 4-OH-tamoxifen in medium 1 µM) [nM] | relative IC50 (BT-474 Tam1 [20]) [nM]
O=C(/C=C/c1cccc(S(=O)(=O)Nc2ccccc2)c1)NO [Belinostat  (PXD101)] | 12 | 11.9 | 14.7 | 12.7 | 9.18 | 4.54 | 6.02 | 2.18 | 7.43 | 9.66 | 12.8 | 16.8 | 4.2 | 3.84 | 10.5 | 795 | 857 | 363 | 554 | 870 | 964 | 833 | 1180 | 1260 | 547 | 354 | 791 | 1200 | 958
Cc1[nH]c2ccccc2c1CCNCc1ccc(/C=C/C(=O)NO)cc1 [Panobinostat] | 15.5 | 15.9 | 16.3 | 15.2 | 17.2 | 5.02 | 7.47 | 1.73 | 8.64 | 12.7 | 17.8 | 23.3 | 8.15 | 4.19 | 19.8 | 44.7 | 40.8 | 28.7 | 35.2 | 22 | 64.7 | 49.6 | 87.6 | 47.5 | 19.7 | 10.6 | 32.7 | 81.7 | 17.1
CC[C@]1(O)C[C@@H]2CN(CCc3c([nH]c4ccccc34)[C@@](C(=O)OC)(c3cc4c(cc3OC)N(C)[C@H]3[C@@](O)(C(=O)OC)[C@H](OC(C)=O)[C@]5(CC)C=CCN6CC[C@]43[C@@H]65)C2)C1 [Vinblastine] | 2.77 | 0.561 | 12.8 | 12.5 | 17.1 | 1.94 | 3.58 | 0.0008 | 8.2 | 6.59 | 13.2 | 21.5 | 11.9 | 2.61 | 13.1 | 113 |  | 9.94 | 13.8 | 24.4 | 214 | 78.9 | 44.2 | 69.2 | 3.77 | 9.7 | 4.23 | 174 | 48.1
CN(C)C[C@@H]1CCn2cc(c3ccccc32)C2=C(C(=O)NC2=O)c2cn(c3ccccc23)CCO1 | 6.79 | 6.1 | 7.13 | 4.11 | 6.47 | 3.13 | 4.71 | 1.31 | 4.71 | 6.85 | 4.1 | 8.42 | 4.14 | 6.47 | 9.22 | 1540 | 2780 | 2350 | 2940 | 2610 | 1400 | 942 | 2530 | 1430 | 3260 | 1860 | 1320 | 1560 | 1590
